Laboratory results from patent US20190183896A1, “ONE STEP MILLING PROCESS FOR PREPARING MICRONIZED PALIPERIDONE ESTERS” (SpecGX LLC, priority 2017, published 2019).

Assay: Particle size measurement of milled suspension (MALVERN MASTERSIZER 3000, in deionized water)
Format: physicochemical
Conditions: mean; suspension of Example 1 milled 20 minutes with 700 micron polystyrene grinding media (Example 2); measured in deionized water
Procedure: The suspension from Example 1 (6-35 w/v %) was milled in a NETZSCH MINICER bead mill using 700 micron polystyrene grinding media (40-85% media load). The mixture was milled at a speed of 3.1-5.5 m/s at 15-25° C. for 20 minutes.
Following milling, particle size was measured, in deionized water, using a MALVERN MASTERSIZER 3000 particle size analyzer. The mean milled paliperidone palmitate particle size distribution of the suspension was D90 less than 20 micron, D50 less than 10 micron, and a D10 less than 3 micron (FIG. 1).

particle size distribution D10: less than 3 micron | particle size distribution D50: less than 10 micron | particle size distribution D90: less than 20 micron
SMILES: CCCCCCCCCCCCCCCC(=O)OC1CCCn2c1nc(C)c(CCN1CCC(c3noc4cc(F)ccc34)CC1)c2=O (stereo not drawn) [paliperidone palmitate, 3-(2-(4-(6-fluoro-3a,7a-dihydrobenzo[d]isoxazol-3-yl)piperidin-1-yl)ethyl)-2-methyl-4-oxo-6,7,8,9-tetrahydro-4H-pyrido[1,2-a]pyrimidin-9-yl palmitate]
